Reference: patent publication US7612077B2, “Crystalline forms of the anti-cancer compound ZD1839” (Astrazeneca AB, priority 2002, dated 2009)

Key:
[1] = stability of the crystalline physical form; type: physicochemical; settings: solid crystalline form
[2] = stability in the presence of water / as aqueous suspension; type: physicochemical
Method: Form 5 ZD1839 trihydrate is a stable form of the compound of Formula I In particular, Form 5 ZD1839 trihydrate is very stable in the presence of water. For example, when Form 5 ZD1839 trihydrate is prepared as an aqueous suspension the resulting suspension is stable, whereas aqueous suspensions prepared using other forms of the compound of Formula I are prone to convert to Form 5 ZD1839 trihydrate during storage. In the case of aqueous suspensions of the compound of Formula I this can be problematic because the conversion of a less thermodynamically stable form to the Form 5 ZD1839 trihydrate can result in the growth of large crystals of the Form 5 ZD1839 trihydrate, thereby altering the particle size distribution in the suspension. […] Furthermore, if a variable mixture of two such forms of the compound of Formula I were to be present, the dissolution rate and bioavailability of the active compound(s) could be variable as a result of the different characteristics of the two forms.

| stability of crystalline physical form [1] | stability in the presence of water ([2]; in the presence of water) | stability of aqueous suspension ([2]; prepared as an aqueous suspension, during storage) | Compound |
| --- | --- | --- | --- |
| of sufficient stability | – | – | COc1cc2ncnc(Nc3ccc(F)c(Cl)c3)c2cc1OCCCN1CCOCC1 [Form 2 ZD1839 MeOH solvate, 4-(3′-chloro-4′-fluoroanilino)-7-methoxy-6-(3-morpholinopropoxy)quinazoline hemi-methanolate] |
| very stable | – | – | COc1cc2ncnc(Nc3ccc(F)c(Cl)c3)c2cc1OCCCN1CCOCC1 [Form 3 ZD1839 DMSO solvate, 4-(3′-chloro-4′-fluoroanilino)-7-methoxy-6-(3-morpholinopropoxy)quinazoline mono-solvate with dimethyl sulphoxide] |
| – | very stable | stable | COc1cc2ncnc(Nc3ccc(F)c(Cl)c3)c2cc1OCCCN1CCOCC1 [Form 5 ZD1839 trihydrate, 4-(3′-chloro-4′-fluoroanilino)-7-methoxy-6-(3-morpholinopropoxy)quinazoline trihydrate] |
| highly stable | – | – | COc1cc2ncnc(Nc3ccc(F)c(Cl)c3)c2cc1OCCCN1CCOCC1 [Form 1 ZD1839 polymorph, 4-(3′-chloro-4′-fluoroanilino)-7-methoxy-6-(3-morpholinopropoxy)quinazoline] |
